Test results published in patent publication US20240197704A1, “TREATMENT METHODS AND CO[…]” (Johns Hopkins University, priority 2021, published 2024).
Entries after “also recorded” stand apart in the source; their conditions may differ.

Assays:
[1] = tested on: juvenile HET+/- (Syngap1+/-) mice; test: Spike frequency over 24 h EEG; format: in vivo; settings: low-dose PMP
Protocol: (§1) 24 h tethered vEEG recording was performed for Het+/− mice and their age- and sex matched WT littermates at P21-P30, followed by telemetric vEEG for 24 h with 6 h SD at P35. Quantitative EEG (qEEG) analysis included the frequency bands: delta (0.5-4.0 Hz), theta(5.5-8.0 Hz), alpha (8.0-13.0 Hz), beta (13.0-30 Hz), and gamma (35-50 Hz). Linear regression of gamma frequency power during transition states from wake to sleep was quantified. Spike frequency over 24 h EEG was scored by a blind reviewer based on previously published parameters. The effect of low-dose PMP (2 mg/kg, IP, BD), an AMPA receptor antagonist, on these potential qEEG biomarkers was investigated. Additionally, movement analysis was performed using infrared cameras to trace fast-active movements between 5 am-7 am. 24 h telemetric vEEG was recorded during marble burying and novel object behavioral tests.

[2] = tested on: juvenile HET+/- (Syngap1+/-) mice; test: 24 h vEEG quantitative EEG (gamma slope, delta power), with or without 6 h sleep deprivation; format: in vivo; settings: for delta power during NREM: one-way ANOVA
Protocol: as §1

[3] = tested on: patient with pathogenic SYNGAP1 variant; test: EEG, hypnogram and quantitative EEG analysis pre- and post-PMP (case study); format: in vivo, human
Protocol: EEGs used for analysis were recorded with a 10-20 electrode placement system. EEGs were reviewed in Persyst (version 14, Persyst Development Corporation, Prescott, AZ). Long-duration continuous EEGs (≥16 h) that included awake and sleep states were reviewed in non-overlapping 10-second epochs. Each epoch was analyzed for the presence or absence of abnormalities and were given a binary score (1=present, 0=absent). The findings that were scored were abnormal slowing (generalized or focal, FIGS. 3A, B) and epileptiform discharges (generalized or focal, FIGS. 3C,D).
In order to characterize and quantify the clustered nature of spikes, hierarchical clustering analysis was implemented. Hierarchical clustering analysis groups data points based on Euclidean distance and the size of clusters were determined by the clustering coefficient. Average number of spike events in a cluster was computed for a sequence of increasing clustering coefficients, and the progressions for spike subtypes were compared. The rate at which the average spike events increased with respect to clustering coefficient and the size characterized the clustered nature of spike events.
Sleep stages were manually scored in 10 second epochs. FFT was applied to 10 second epochs in Sirenia Sleep software (Pinnacle Tech. Inc, Kansas USA) for further EEG analysis. […] To analyze the presence of similar gamma dysregulation in REM and NREM transition points, linear regression analysis was done on 10 min segment of the REM to NREM transition point

PV+ interneurons = test: AMPA insertion and hyperexcitable phenotype in SynGAP1 mice; format: in vivo; settings: low dose
Syngap1+/- mice = settings: cited from earlier work
[4] = tested on: patient with pathogenic SYNGAP1 variant; test: VB-MAPP assessment for verbal and social skills (case study); format: in vivo, human; set-up: key to VB-MAPP Communication: Manding / VB-MAPP Communication: Pointing/gesturing to preferred items / VB-MAPP Communication: Listener Responding-reinforcing/preferred items / VB-MAPP Communication: PECS-Phase 1 / VB-MAPP Cognitive: Motor imitation / VB-MAPP Cognitive: Receptive commands / VB-MAPP Social: Responds to name / VB-MAPP Social: Parallel play / VB-MAPP Social: Independent play / VB-MAPP Health: Feeding / VB-MAPP Behavior: Functional Communication training / VB-MAPP Behavior: Waiting: ↑ = improvement in skill from prior assessment; ↓ = worsening in skill from prior assessment
Protocol: (§2) A […] […] daughter with pathogenic SYNGAP1 variant was trialed on low doses of PMP.
(§3) Clinical data from physician's clinic notes; genetic testing reports; developmental scores from occupational therapy, physical therapy, speech and language therapy evaluations; and applied behavioral analysis (ABA) reports were reviewed.
(§4) Low-dose PMP at 0.2 mg every night was started when they were 25 months of age. […] The Verbal Behavior Milestones Assessment and Placement Program (VB-MAPP) which is an assessment and skills-tracking system to assess the language, learning and social skills of children with autism or other developmental disabilities was used to evaluate their language and other related social skills. […] Patients' baseline VB-MAPP score […] (prior to starting PMP) was 7/45, which improved to 10/45 at 3 months post PMP and then to 17.5/45 at 10 and 13 months post PMP with 37.2% of developmental goals mastered. A follow-up overnight EEG was done […]. […] Multifocal epileptiform discharges, which were rarely observed in their prior EEGs, were noted over the temporal and central head regions bilaterally and occurred independently. At times the centro-temporal discharges occurred synchronously. These discharges were most prevalent in the N2 sleep, which increased in prevalence in subsequent N2 sleep cycles (FIG. 3). Finally, similar to dysregulated gamma seen during behavioral transition points from wake to NREM sleep in Syngap1^+/− mice, we also observed gamma dysregulation in our patient's pre-PMP EEG, where gamma power was increased during NREM when transitioning from REM and, therefore, presenting a positive slope (FIG. 4).

[5] = tested on: juvenile HET+/- (Syngap1+/-) mice; test: Movement analysis of fast-active events with infrared cameras; format: in vivo; settings: 5-7 am, dark cycle; HET+/- with low-dose PMP vs WT+/+
Protocol: as §1

[6] = tested on: patient with pathogenic SYNGAP1 variant; test: Case study of low-dose PMP: tolerability, therapy evaluations, sleep, clinical seizures; format: in vivo, human
Protocol: as §2
The child has now been on low-dose PMP (<2 mg daily) for over one year. We here discuss the safety profile, changes in the electroencephalographic (EEG) features and clinical features, especially in the developmental profile and sleep pre-and-post PMP. We hypothesize that PMP at doses lower than typically used as an antiseizure medication will be safe in patients with SYNGAP1-DEE and help normalize sleep and behavioral disorders. Almost 50% of SYNGAP1-DEE related epilepsies are refractory to treatment from the very onset and currently very few children are prescribed PMP even for seizure control such that only 1 of 57 patients in a cohort study was documented to have been on it(3).
as §3, §4

[7] = 3 months post PMP (dose 0.2 mg)
[8] = 10 months post PMP (dose 0.3 mg)
[9] = 6 months post-initiation, once daily low-dose PMP at bedtime

Compound: N#Cc1ccccc1-c1cc(-c2ccccn2)cn(-c2ccccc2)c1=O [PMP, 3-(2-cyanophenyl)-5-(2-pyridyl)-1-phenyl-1,2-dihydropyridin-2-one]
- cortical spike frequency [1]: reduced spike frequency in high spiking HET^+/− mice however group data was not statistically significant
- delta power during NREM ([2]; 24 h baseline vEEG, all groups incl. HET+/- PMP): did not show notable statistical significance across all groups
- delta power during NREM ([2]; 24 h vEEG with 6 h SD, all groups): did not show notable statistical significance across all groups
- gamma slope at behavioral transition points, wake to sleep ([2]; low-dose PMP 2 mg/kg, IP, BD, juvenile HET+/-, paired t-test p<0.05): significantly reduced the gamma slope and rescued the gamma homeostasis
- gamma slope at sleep transition points after 6 h SD ([2]; low-dose PMP 2 mg/kg, IP, sleep deprived HET+/-, paired t-test p<0.05): rescued gamma homeostasis by decreasing the most dominant slope
- prevalence of occipital intermittent rhythmic delta activity (OIRDA) ([3]; follow-up overnight EEG, post-PMP vs pre-PMP, wake and REM sleep): overall decrease in the prevalence of the OIRDA; also recorded: significantly reduced post-PMP
- effect on epileptiform discharges ([3]; low-dose PMP): did not have any significant effect on the epileptiform discharges
- prevalence of focal epileptiform discharges ([3]; post PMP vs pre PMP EEG): more prevalent post PMP compared to pre PMP
- gamma dysregulation: gamma slope at REM to NREM transitions ([3]; post-PMP EEG vs pre-PMP EEG, same patient): significantly alleviated; also recorded: significantly rescued
- excessive AMPA insertion and hyperexcitable phenotype (PV+ interneurons): rescue the excessive AMPA insertion and hyperexcitable phenotype
- gamma dysregulation (Syngap1+/- mice; PMP-treated Syngap1+/- mice): significant rescue of the gamma dysregulation
- interictal spikes suppression (Syngap1+/- mice; epileptic mice, low dose): weaker effect on interictal spikes suppression
- VB-MAPP Behavior: Functional Communication training [4, 7]: ↑
- VB-MAPP Behavior: Waiting [4, 7]: ↑
- VB-MAPP Cognitive: Motor imitation [4, 7]: ↑
- VB-MAPP Cognitive: Receptive commands [4, 7]: ↑
- VB-MAPP Communication: Listener Responding-reinforcing/preferred items [4, 7]: ↑
- VB-MAPP Communication: Manding [4, 7]: ↑
- VB-MAPP Communication: PECS-Phase 1 [4, 7]: ↑
- VB-MAPP Communication: Pointing/gesturing to preferred items [4, 7]: ↑
- VB-MAPP Health: Feeding [4, 7]: ↑
- VB-MAPP Social: Independent play [4, 7]: ↑
- VB-MAPP Social: Parallel play [4, 7]: ↑
- VB-MAPP Social: Responds to name [4, 7]: ↑
- VB-MAPP score ([4]; 3 months post PMP, baseline prior to PMP 7/45): 10/45
- developmental goals mastered ([4]; 10 and 13 months post PMP): 37.2%
- VB-MAPP Behavior: Functional Communication training [4, 8]: ↑
- VB-MAPP Behavior: Waiting [4, 8]: ↑
- VB-MAPP Cognitive: Motor imitation [4, 8]: ↑
- VB-MAPP Cognitive: Receptive commands [4, 8]: ↑
- VB-MAPP Communication: Listener Responding-reinforcing/preferred items [4, 8]: ↓
- VB-MAPP Communication: Manding [4, 8]: ↓
- VB-MAPP Communication: PECS-Phase 1 [4, 8]: ↑
- VB-MAPP Communication: Pointing/gesturing to preferred items [4, 8]: ↑
- VB-MAPP Health: Feeding [4, 8]: ↑
- VB-MAPP Social: Independent play [4, 8]: ↑
- VB-MAPP Social: Parallel play [4, 8]: ↑
- VB-MAPP Social: Responds to name [4, 8]: ↑
- level of fast active events (hyperactivity) [5]: this relation was lost after the low-dose PMP administration
- tolerability ([6]; 1.5 mg daily at bed-time): tolerating it well
- fine and visual motor skills (occupational therapy evaluation) [6, 9]: improvement in their fine and visual motor skills
- independent walking [6, 9]: started walking independently
- tone and strength (physical therapy evaluation) [6, 9]: significant improvements in their tone and strength
- control of clinical seizures ([6]; low dose PMP): not helpful in controlling their clinical seizures
- motor, cognition, communication, social and behavior domains ([6]; low doses 0.2 mg->0.3 mg per day at bedtime): significant improvements
- tolerability / side effects ([6]; low-dose PMP 0.2 mg, then 0.3 mg every night, started): tolerated the PMP well without any side effects; also recorded: without significant side-effects
- sleep quality (parent report) ([6]; once daily low-dose PMP at bedtime): improvement in sleep quality with fewer night time awakenings
